Data on 38 molecules can be found in ChEMBL document CHEMBL3988442, “University of Dundee, Small-Polar-MMV Screening Library” (2021).

In this experiment the test system is Schistosoma mansoni. Briefly: High throughput screening of compounds against Schistosoma mansoni motility. Type of experiment: functional. The arrangement: dose or concentration left out as unconfirmed.

Regarding `CCCS(=O)(=O)Nc1ccc2c(c1)OCC(C)(C)C(=O)N2C`, the “Percent Effect” value worked out at 7.848%. The same measure for `O=C(NCC1(CO)CC1)c1cccc2ccccc12`: -62.45%; for `COc1ccccc1S(=O)(=O)N1CCC(Oc2cccnn2)CC1`: -19.77%.

With `Cn1cnnc1S(=O)(=O)C1CCN(S(=O)(=O)C2CC2)CC1`, the “Percent Effect” value is -25.74%. With `Cc1cc(NC(=O)CCc2ccsc2)n(C)n1` the figure was 18.83%; with `O=C1CN(Cc2nnc(-c3ccc(Br)o3)o2)CCN1`, -20.64%; with `CS(=O)(=O)NCCNC(=O)C1(c2cccc(Cl)c2)CC1`, 21.58%. The same measure for `CN(C)CCN(Cc1ccc(Cl)cc1)C(=O)c1cc[nH]n1`: 46.97%; for `COCc1ccccc1NC(=O)[C@@H]1CCCN1C(=O)c1ccco1`: -9.117%.

In the case of `O=C(NCCCn1cccn1)C1(c2ccc(Br)cc2)CC1`, the “Percent Effect” value is on record as 14.19%. With `O=C1NCCCCC1Sc1nnc(-c2cccnc2)n1C1CC1` (stereo not drawn) the figure was -73.97%; with `Cc1ccc(S(=O)(=O)NC(=O)c2cccc3c2OCCO3)c(C)c1`, -13.74%; with `Cc1cccc(C(=O)N2CCN(S(C)(=O)=O)[C@@H](C)C2)c1C`, -56.44%. The same measure for `CCc1nc(CN2CCCC(N(C)Cc3cnc(C)s3)C2)no1` (stereo not drawn): 23.33%. The same measure for `COc1ccc(C2CCCCCN2S(=O)(=O)N(C)C)cc1` (stereo not drawn): 18.41%; for `Cc1csc(CNC(=O)Nc2cc(C(F)(F)F)c[nH]c2=O)n1`: 7.294%; for `CNC(=O)CCNC(=O)c1cccc(Cn2nc(C)cc2C)c1`: -2.451%. On to `COc1ccc(CNC(=O)NCC2CCOC2)c(C(F)(F)F)c1` (stereo not drawn), for which the “Percent Effect” value is given as -32.81%. With `Cc1nc(C)n(CC2CN(CC(=O)Nc3nccs3)CCO2)n1` (stereo not drawn) the figure was -3.889%; with `Cc1nn(C)c(C)c1C1COCCN1C(=O)Cc1cccc(F)c1` (stereo not drawn), -11.98%; with `COc1ccc(C2CCCN2C(=O)NCCNc2ncccn2)cc1` (stereo not drawn), -55.34%. The same measure for `CSCC(CCO)NC(=O)Nc1cccc(Br)c1` (stereo not drawn): -21.75%. The same measure for `Cc1ccc(C(=O)O)cc1S(=O)(=O)Nc1nn(-c2ccccc2)cc1C`: -27.39%. As for `Cc1cccc(CCC(=O)N2CCOCC2c2c(C)n[nH]c2C)c1` (stereo not drawn), the “Percent Effect” value is given as -56.4%. With `Oc1cc(CCC2CCCCN2)cc(-c2ccncc2)c1` (stereo not drawn) the figure was 6.025%. With `Cc1ccc(-c2cn[nH]c2C2CCCN(c3nccc(N)n3)C2)cc1` (stereo not drawn) the figure was 94.46%.

Take `CN(Cc1ccccc1)CC1(O)CCCN(CC(C)(C)C)C1=O` (stereo not drawn): the “Percent Effect” value came to 9.775%. For the molecule `c1ccc(-c2noc3c2CN(CC2CC2)CC3)cc1`, the “Percent Effect” value is -116.8%.

Regarding `O=C(CCc1ccccc1)C1CCCN(C(=O)c2ncc(F)cc2F)C1` (stereo not drawn), the “Percent Effect” value is -32.14%. The same measure for `Cc1ccsc1[C@@H]1CCN(C(=O)CCC(=O)N2CCCCCC2)C[C@H]1O`: -14.8%; for `NC(=O)c1cccc(CC2CCN(C(=O)CCCN3CCOCC3)C2)c1` (stereo not drawn): -44.07%.

Regarding `CC(C)C1CN(c2ncccn2)CCC(=O)N1Cc1ccc(F)cc1` (stereo not drawn), the “Percent Effect” value was -32.66%. The same measure for `CSCCC(=O)N1CCC(Oc2cc(C)ccc2F)(C(=O)O)CC1`: 12.24%; for `COc1ccccc1OCc1cc(C(=O)N2CC=CC2C(C)C)n[nH]1` (stereo not drawn): -26.69%; for `Cc1occc1C(=O)N1CCC2(CCCN(CC3CCC3)C2=O)C1` (stereo not drawn): -40.66%. With `COCCNS(=O)(=O)c1ccc2c(c1)CCN(C(=O)c1cncn1C)C2`, the “Percent Effect” value is 4.246%. As to `COCCn1ccnc1C1CCCN(C(=O)CSCC2CC2)C1` (stereo not drawn), the “Percent Effect” value is given as -4.392%.

Consider `O=C(c1cc(=O)[nH]c(=O)[nH]1)N1CCCCC1c1nc2cc(F)ccc2[nH]1` (stereo not drawn), for which the “Percent Effect” value is given as -2.098%.
